{
  "source": "paper PMC5762315",
  "about": "“Inhibition of polo-like kinase 4 (PLK4): a new therapeutic option for rhabdoid tumors and pediatric medulloblastoma” (Oncotarget, 2017)",
  "key": {"RT and MB cell lines": {"system": "RT and MB cell lines", "assay": "Clonogenic recovery assay", "format": "cell-based, human", "conditions": "6 days 100nM, then 12 days 0.1% DMSO", "experimental": "For each cell line, 200 cells were seeded into 6-well tissue culture plates. […] On the 7th day, cell were washed with 1X PBS twice and then incubated with 0.1% DMSO for an additional 12 days. […] The number of colonies was counted. All experiments were performed in triplicates."}, "DAOY cells [1]": {"system": "DAOY cells", "assay": "Colony formation assay, DAOY", "format": "cell-based, human", "conditions": "50nM"}, "G401 cells": {"system": "G401 cells", "assay": "Viability assay (Presto Blue), G401", "format": "cell-based", "conditions": "Homo sapiens, G-401, dose-response 1nM to 10μM", "experimental": "(§1) Except DAOY and D283, all cell lines were plated with 2 x 10^3 cells per well 96-well and the absorbance was measured after 48 and 72 hours at drug concentrations of 5, 10, 50, 100, 200, 500nM, 1μM and 5μM."}, "MON rhabdoid cells": {"system": "MON rhabdoid cells", "assay": "Immunofluorescence for gamma-tubulin (centriole number), MON", "format": "cell-based, human", "conditions": "48 hours", "experimental": "(§2) The cells were then blocked in blocking buffer (5% BSA (Jackson Immuno Research Laboratories Inc., USA) in PBST) for 1 hour at RT. The primary antibody ([…] 1:500, Sigma, USA) diluted in 1% BSA in PBST was then added and incubated at 4°C overnight. Then, the cells were washed with 1X PBS thrice. Secondary antibody (Anti-Rabbit IgG (H+L) F (ab’) 2, 1:500, Sigma, USA) diluted in 1% BSA in PBST was added and incubated at RT for 2 hours. Three time washes with 1X PBS were performed. Then, 1mL of DAPI (Thermo Fisher Scientific, USA) in PBS (0.5μl of DAPI in 10 ml PBS) was added to the cells and incubated for 10 min at RT. Finally, 3 time washes with 1X PBS were performed and slides were mounted using Mounting Medium (Thermo Fisher Scientific, USA)."}, "[2]": {"set-up": "method as in PMID 28057846", "conditions": "adults with advanced solid tumors; cited from earlier work"}, "[3]": {"system": "G401, BT-12, BT-16, DAOY and D283 cell lines", "assay": "Immunofluorescence for gamma-tubulin (centriole number), other RT and MB lines", "format": "cell-based, human", "experimental": "as §2"}, "TEK [4]": {"system": "TEK", "assay": "Kinase activity screening (SelectScreen), TEK", "format": "biochemical", "conditions": "kinase TEK (Tie2); ZLYTE"}, "TEK [5]": {"target": "TEK (Homo sapiens, UniProt Q02763, Y1108F)", "sequence (Q02763 771-1124 Y1108F)": "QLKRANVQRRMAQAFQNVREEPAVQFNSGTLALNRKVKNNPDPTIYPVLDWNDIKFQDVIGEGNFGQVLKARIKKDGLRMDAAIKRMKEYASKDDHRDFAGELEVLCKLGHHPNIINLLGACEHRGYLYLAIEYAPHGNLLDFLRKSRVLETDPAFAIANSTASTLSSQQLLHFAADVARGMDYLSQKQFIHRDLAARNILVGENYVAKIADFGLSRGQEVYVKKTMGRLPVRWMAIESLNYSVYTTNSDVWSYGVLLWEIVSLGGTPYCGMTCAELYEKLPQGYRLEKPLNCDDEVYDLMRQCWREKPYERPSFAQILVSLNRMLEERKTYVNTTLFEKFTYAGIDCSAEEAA", "assay": "Kinase activity screening (SelectScreen), TEK", "format": "biochemical"}, "TEK [6]": {"target": "TEK (Homo sapiens, UniProt Q02763, R849W)", "sequence (Q02763 771-1124 R849W)": "as the sequence (Q02763 771-1124 Y1108F) above, with R79W, F338Y counted along it", "assay": "Kinase activity screening (SelectScreen), TEK", "format": "biochemical", "conditions": "kinase TEK (TIE2) R849W; LanthaScreen Binding"}, "TEK [7]": {"target": "TEK (Homo sapiens, UniProt Q02763, Y897S)", "sequence (Q02763 771-1124 Y897S)": "as the sequence (Q02763 771-1124 Y1108F) above, with Y127S, F338Y counted along it", "assay": "Kinase activity screening (SelectScreen), TEK", "format": "biochemical", "conditions": "kinase TEK (TIE2) Y897S; ZLYTE"}, "[8]": {"assay": "Brain to plasma ratio (B:P), LC-MS/MS", "format": "in vivo, male CD-1 mice", "conditions": "male, CD-1, mouse, po, 7.5 mg/kg, 4 hours post-dose", "experimental": "Male CD-1 mice weighing between 20 and 40 grams were fitted with jugular vein cannulas as appropriate and fasted overnight until 4 hours post-dose. Double route of administration (oral and IV) were tested, with a single dose concentration of 7.5mg/kg. Plasma and brain were sampled at 6 time-points, starting at 30 minutes (n=3 animals/time-point). Brain was extracted at the same plasma sampling time-point from each animal. Both plasma and brain samples were deproteinated. Brain samples were weighted, homogenized and CFI-400945 was extracted. […] The dosing solution was normalized in a matched matrix (mouse plasma) and analyzed in triplicate in the same analytical batch as the incurred samples (Absorption Systems - Exton, PA)."}, "[9]": {"system": "PLK4 mRNA expression in MON rhabdoid cells", "assay": "qRT-PCR for PLK4 transcript in treated MON cells", "format": "cell-based, human", "conditions": "10, 50, 100 and 500nM for 24, 48 and 72 hours", "experimental": "The expression of PLK4 (Hs00179514_m1) in each cell line was verified by TaqMan GE assays (Thermo Fisher Scientific, USA) using the housekeeping gene GAPDH (Hs02758991_g1) as reference. Total RNA (2μg) was used to make cDNA using the Applied Biosystems High Capacity RNA-to-cDNA kit (Thermo Fisher Scientific). Reactions were performed in triplicate with adequate positive and negative controls. The normalized expression levels were calculated by the ΔΔCt method using the housekeeping gene and a pool of all samples as calibrator."}, "[10]": {"system": "MON, G401, BT-12, BT-16, DAOY and D283 cell lines", "assay": "Senescence beta-galactosidase assay", "format": "cell-based, human", "conditions": "all cell lines (MON, G401, BT-12, BT-16, DAOY, D283); 100nM, 48 hours", "experimental": "For each cell line, cells were seeded in 6-well plates in triplicates with 100,000 cells per well. Treatment medium was added the next day and incubated for 48 or 72 hrs. After incubation, cells were washed twice with 1X PBS and 1mL of the Fixation Buffer from the kit was added to each well of the plate and incubated at RT for 5 min. Cells were washed with 1X PBS and 1mL of staining solution from the kit was added to each well and incubated at 37°C without CO2 overnight. The next day, the cells were washed with 1X PBS and the numbers of blue stained cells (which indicate senescent cells) and unstained cells were counted in image J (www.imagej.nih.gov). The percentage of senescent cells was calculated."}, "DAOY cells [11]": {"system": "DAOY cells", "assay": "Viability assay (Presto Blue), DAOY", "format": "cell-based", "conditions": "Homo sapiens, dose-response 1nM to 10μM"}, "BT-12 cells": {"system": "BT-12 cells", "assay": "Viability assay (Presto Blue), BT-12", "format": "cell-based", "conditions": "Homo sapiens, dose-response 1nM to 10μM", "experimental": "as §1"}, "[12]": {"system": "non-neoplastic human fibroblast cell line HFF-SCC058", "assay": "Flow cytometry cell cycle analysis (polyploidy), fibroblasts", "format": "cell-based", "conditions": "100nM", "experimental": "Cell cycle evaluation was performed by staining the cells with PI (Thermo Fisher Scientific, USA) according to manufacturer’s instructions. […] Data was analyzed using Modfit LT from Verity Software House. Experiments were performed in triplicates."}, "D283 cells": {"system": "D283 cells", "assay": "Colony formation assay, D283", "format": "cell-based, human", "conditions": "50nM"}, "MON cells": {"system": "MON cells", "assay": "Viability assay (Presto Blue), MON", "format": "cell-based", "conditions": "Homo sapiens, dose-response 1nM to 10μM", "experimental": "as §1"}},
  "data": [
    {"smiles": "COc1ccc2c(c1)[C@]1(C[C@H]1c1ccc3c(/C=C/c4ccc(CN5C[C@@H](C)O[C@@H](C)C5)cc4)n[nH]c3c1)C(=O)N2", "note": "[CFI-400945]", "values": [
      {"measurement": "clonogenic recovery", "setting": "RT and MB cell lines", "result": "none of the cell lines recovered their ability to generate colonies"},
      {"measurement": "colony formation", "setting": "DAOY cells [1]", "result": "Complete inhibition"},
      {"measurement": "IC50", "setting": "G401 cells", "result": 3.79, "unit": "µM"},
      {"measurement": "centrioles' number", "setting": "MON rhabdoid cells; 100nM", "result": "slight increase"},
      {"measurement": "centrioles' number", "setting": "MON rhabdoid cells; 500nM", "result": "significant depletion"},
      {"measurement": "tolerability, preliminary phase I results", "setting": "[2]", "result": "well tolerated at doses up to 72 mg"},
      {"measurement": "centrioles' number", "setting": "[3]; 100nM", "result": "increase"},
      {"measurement": "centrioles' number", "setting": "[3]; 500nM", "result": "significant decrease"},
      {"measurement": "% Inhibition Duplicate #2", "setting": "TEK [4]", "result": 55, "unit": "%"},
      {"measurement": "IC50", "setting": "TEK [5]", "result": 0.109, "unit": "µM"},
      {"measurement": "% Inhibition Duplicate #2", "setting": "TEK [6]", "result": 87, "unit": "%"},
      {"measurement": "% Inhibition Average", "setting": "TEK [7]", "result": 31, "unit": "%"},
      {"measurement": "% Inhibition Duplicate #1", "setting": "TEK [7]", "result": 29, "unit": "%"},
      {"measurement": "% Inhibition Duplicate #2", "setting": "TEK [7]", "result": 32, "unit": "%"},
      {"measurement": "Kp at 4 h", "setting": "[8]; brain / plasma, fasted male CD-1 mice, triplicates, read-out: Average Raw B:P Ratio", "result": "~0.08"},
      {"measurement": "concentration at 4 h", "setting": "[8]; plasma, plasma density assumed 1 g/mL, individual mice #355, 356, 357, read-out: Plasma Conc.", "result": 498, "unit": "ng/g"},
      {"measurement": "PLK4 expression (qPCR) vs control", "setting": "[9]", "result": "time dependent decrease"},
      {"measurement": "senescent cells (beta galactosidase)", "setting": "[10]", "result": "significant increase"},
      {"measurement": "IC50", "setting": "DAOY cells [11]", "result": 0.094, "unit": "µM"},
      {"measurement": "IC50", "setting": "BT-12 cells", "result": 3.73, "unit": "µM"},
      {"measurement": "polyploidy (cell cycle analysis)", "setting": "[12]", "result": "No effect"},
      {"measurement": "colony formation", "setting": "D283 cells", "result": "Complete inhibition"},
      {"measurement": "IC50", "setting": "MON cells", "result": 5.13, "unit": "µM"}
    ]}
  ]
}
